Experiments:
[1] = target: recombinant Dictyostelium miozin (Dictyostelium) (Dictyostelium discoideum, UniProt P08799); assay: actomyosin steady state ATPase measurement, Dictyostelium myosin; type: biochemical; conditions: for IC50: concentration required for semi-maximal inhibition of ATPase, read-out: IC50 (μM) Dicty; for % inhibition. complete Dicty: maximum value of inhibition of ATPase activity; for inhibition at 5 µM: read-out: % inhibition at 5 μM (or 10 μM if racemate) Dicty; for inhibition at 50 µM: read-out: % inhibition at 50 μM (or 100 μM if racemate) Dicty
Description: (§1) […]; (ii) the concentration required for semi-maximal inhibition.

[2] = target: recombinant human non-muscle myosin 2 NM2C (Homo sapiens, UniProt Q7Z406); assay: actomyosin steady state ATPase measurement, NM2C; type: biochemical; conditions: for IC50: concentration required for semi-maximal inhibition of ATPase; for % inhibition. complete NM2C: maximum value of inhibition of ATPase activity; for inhibition at 5 µM: read-out: % inhibition at 5 μM (or 10 μM if racemate) NM2C, 5 μM (10 μM if racemate); for inhibition at 5 µM / inhibition at 50 µM: ATPase activity; for inhibition at 50 µM: read-out: % inhibition at 50 μM (or 100 μM if racemate) NM2C, 50 μM (100 μM if racemate)
Description: as §1

[3] = target: T1, isolated porcine cardiac ventricular myocardium (cardiac) (Sus scrofa, UniProt P79293); assay: actomyosin steady state ATPase measurement, cardiac myosin; type: biochemical; conditions: for IC50: concentration required for semi-maximal inhibition of ATPase; for % inhibition. complete cardiac: maximum value of inhibition of ATPase activity; for inhibition at 5 µM: read-out: % inhibition at 5 μM (or 10 μM if racemate) cardiac, 5 μM (10 μM if racemate); for inhibition at 5 µM / inhibition at 50 µM: ATPase activity; for inhibition at 50 µM: read-out: % inhibition at 50 μM (or 100 μM if racemate) cardiac, 50 μM (100 μM if racemate)
T1 construct: isolated porcine cardiac ventricular myocardium (cardiac); from tissue; host or cells: porcine cardiac ventricle
Description: as §1

[4] = test system: isolated rabbit skeletal muscle myosin (skeletal); assay: actomyosin steady state ATPase measurement, skeletal muscle myosin; type: biochemical; conditions: for % inhibition at 5 μM (or 10 μM if racemate) Skeletal: 5 μM (10 μM if racemate); for % inhibition at 5 μM (or 10 μM if racemate) Skeletal / % inhibition at 50 μM (or 100 μM if racemate) Skeletal: ATPase activity; for % inhibition at 50 μM (or 100 μM if racemate) Skeletal: 50 μM (100 μM if racemate); for IC50: concentration required for semi-maximal inhibition of ATPase; for % inhibition. complete Skeletal: maximum value of inhibition of ATPase activity
Description: as §1

[5] = target: isolated smooth muscle myosin (UniProt P10587); type: biochemical, chamois; conditions: concentration required for semi-maximal inhibition of ATPase
Description: (ii) the concentration required for semi-maximal inhibition.

M. quadriceps femoris = assay: isometric force measurement of live, anesthetized rat M. quadriceps femoris due to electrical stimulation; type: in vivo; conditions: 6 mg i.p.
Experimental: (§2) The maximum isometric force induced by the stimulation was determined after intraperitoneal injection of some of the compounds of the invention. During the measurement, the following parameters of live anesthetized rats were continuously monitored: • a) heart rate • b) blood flow in the neck arteries • c) respiratory frequency • d) blood oxygen saturation ratio Results from live anesthetized rats are summarized in the table below.

[6] = vital parameters of live anesthetized rats monitored during isometric force measurement; type: in vivo; conditions: 6 mg i.p., anesthetized rat
Experimental: as §2, with “ratio” for “ratio Results from live anesthetized rats are summarized in the table below.”

[7] = target: isolated smooth muscle myosin (UniProt P10587); type: biochemical, chamois; conditions: for % inhibition at 5 μM (or 10 μM if racemate) Smooth: 5 μM (10 μM if racemate); for % inhibition at 5 μM (or 10 μM if racemate) Smooth / % inhibition at 50 μM (or 100 μM if racemate) Smooth: ATPase activity; for % inhibition at 50 μM (or 100 μM if racemate) Smooth: 50 μM (100 μM if racemate); for % inhibition. complete Smooth: maximum value of inhibition of ATPase activity
[8] = target: recombinant human non-muscle myosin 2 NM2A (Homo sapiens, UniProt P35579); assay: actomyosin steady state ATPase measurement, NM2A; type: biochemical; conditions: for IC50: concentration required for semi-maximal inhibition of ATPase; for % inhibition. complete NM2A: maximum value of inhibition of ATPase activity; for inhibition at 5 µM: read-out: % inhibition at 5 μM (or 10 μM if racemate) NM2A, 5 μM (10 μM if racemate); for inhibition at 5 µM / inhibition at 50 µM: ATPase activity; for inhibition at 50 µM: read-out: % inhibition at 50 μM (or 100 μM if racemate) NM2A, 50 μM (100 μM if racemate)
Description: as §1

[9] = target: recombinant human non-muscle myosin 2 NM2B (Homo sapiens, UniProt P35580); assay: actomyosin steady state ATPase measurement, NM2B; type: biochemical; conditions: for IC50: concentration required for semi-maximal inhibition of ATPase; for inhibition at 5 µM: read-out: % inhibition at 5 μM (or 10 μM if racemate) NM2B, 5 μM (10 μM if racemate); for inhibition at 5 µM / inhibition at 50 µM: ATPase activity; for inhibition at 50 µM: read-out: % inhibition at 50 μM (or 100 μM if racemate) NM2B, 50 μM (100 μM if racemate)
Description: as §1

Chain of recombinant human non-muscle myosin 2 NM2C (Q7Z406 whole entry): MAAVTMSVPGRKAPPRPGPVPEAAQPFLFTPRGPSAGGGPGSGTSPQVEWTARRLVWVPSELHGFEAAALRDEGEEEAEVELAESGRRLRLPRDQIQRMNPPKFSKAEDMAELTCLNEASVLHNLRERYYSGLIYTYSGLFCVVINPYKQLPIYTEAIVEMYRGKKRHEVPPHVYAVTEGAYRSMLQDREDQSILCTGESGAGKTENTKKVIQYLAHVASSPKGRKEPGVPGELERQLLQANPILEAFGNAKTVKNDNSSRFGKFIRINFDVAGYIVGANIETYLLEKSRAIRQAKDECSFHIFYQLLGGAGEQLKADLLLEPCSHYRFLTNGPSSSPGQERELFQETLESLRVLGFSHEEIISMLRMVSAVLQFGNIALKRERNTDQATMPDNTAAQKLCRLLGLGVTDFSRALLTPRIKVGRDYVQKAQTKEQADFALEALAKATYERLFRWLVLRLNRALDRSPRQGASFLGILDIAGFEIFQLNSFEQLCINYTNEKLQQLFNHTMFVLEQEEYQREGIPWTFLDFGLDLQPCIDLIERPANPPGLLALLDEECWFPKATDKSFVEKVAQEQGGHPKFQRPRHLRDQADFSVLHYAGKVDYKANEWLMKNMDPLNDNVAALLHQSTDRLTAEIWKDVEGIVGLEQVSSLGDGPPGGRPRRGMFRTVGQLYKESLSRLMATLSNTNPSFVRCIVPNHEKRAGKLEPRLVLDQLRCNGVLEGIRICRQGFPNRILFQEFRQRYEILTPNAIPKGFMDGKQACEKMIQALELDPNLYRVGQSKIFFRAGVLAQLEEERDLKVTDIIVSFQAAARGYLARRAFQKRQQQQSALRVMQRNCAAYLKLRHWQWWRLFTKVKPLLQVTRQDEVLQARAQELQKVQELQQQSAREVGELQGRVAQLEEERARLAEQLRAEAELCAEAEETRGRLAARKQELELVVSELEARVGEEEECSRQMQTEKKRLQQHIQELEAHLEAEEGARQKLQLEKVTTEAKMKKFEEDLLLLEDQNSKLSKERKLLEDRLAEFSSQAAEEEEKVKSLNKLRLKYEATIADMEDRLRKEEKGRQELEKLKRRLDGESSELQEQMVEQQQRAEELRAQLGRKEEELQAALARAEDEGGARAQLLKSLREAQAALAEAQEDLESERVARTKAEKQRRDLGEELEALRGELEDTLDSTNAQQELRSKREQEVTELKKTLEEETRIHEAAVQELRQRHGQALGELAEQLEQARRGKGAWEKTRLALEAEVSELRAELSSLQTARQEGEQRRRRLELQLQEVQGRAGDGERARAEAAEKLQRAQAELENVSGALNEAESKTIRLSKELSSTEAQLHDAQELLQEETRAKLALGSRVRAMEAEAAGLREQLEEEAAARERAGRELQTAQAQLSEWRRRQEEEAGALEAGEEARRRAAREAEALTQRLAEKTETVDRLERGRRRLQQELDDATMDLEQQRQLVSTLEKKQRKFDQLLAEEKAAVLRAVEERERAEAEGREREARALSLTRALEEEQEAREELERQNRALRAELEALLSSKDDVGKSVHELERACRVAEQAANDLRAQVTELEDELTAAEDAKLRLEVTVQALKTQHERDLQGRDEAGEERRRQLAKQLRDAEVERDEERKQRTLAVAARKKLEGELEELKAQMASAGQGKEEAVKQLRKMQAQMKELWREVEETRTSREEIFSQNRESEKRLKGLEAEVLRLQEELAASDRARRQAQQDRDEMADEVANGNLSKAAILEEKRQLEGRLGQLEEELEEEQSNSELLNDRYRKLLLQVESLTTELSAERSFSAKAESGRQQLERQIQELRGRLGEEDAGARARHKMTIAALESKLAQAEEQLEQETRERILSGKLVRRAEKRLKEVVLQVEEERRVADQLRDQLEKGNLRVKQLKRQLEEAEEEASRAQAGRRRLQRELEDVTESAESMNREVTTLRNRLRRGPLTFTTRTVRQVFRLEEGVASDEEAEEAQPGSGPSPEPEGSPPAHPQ
Chain of recombinant human non-muscle myosin 2 NM2A (P35579 whole entry): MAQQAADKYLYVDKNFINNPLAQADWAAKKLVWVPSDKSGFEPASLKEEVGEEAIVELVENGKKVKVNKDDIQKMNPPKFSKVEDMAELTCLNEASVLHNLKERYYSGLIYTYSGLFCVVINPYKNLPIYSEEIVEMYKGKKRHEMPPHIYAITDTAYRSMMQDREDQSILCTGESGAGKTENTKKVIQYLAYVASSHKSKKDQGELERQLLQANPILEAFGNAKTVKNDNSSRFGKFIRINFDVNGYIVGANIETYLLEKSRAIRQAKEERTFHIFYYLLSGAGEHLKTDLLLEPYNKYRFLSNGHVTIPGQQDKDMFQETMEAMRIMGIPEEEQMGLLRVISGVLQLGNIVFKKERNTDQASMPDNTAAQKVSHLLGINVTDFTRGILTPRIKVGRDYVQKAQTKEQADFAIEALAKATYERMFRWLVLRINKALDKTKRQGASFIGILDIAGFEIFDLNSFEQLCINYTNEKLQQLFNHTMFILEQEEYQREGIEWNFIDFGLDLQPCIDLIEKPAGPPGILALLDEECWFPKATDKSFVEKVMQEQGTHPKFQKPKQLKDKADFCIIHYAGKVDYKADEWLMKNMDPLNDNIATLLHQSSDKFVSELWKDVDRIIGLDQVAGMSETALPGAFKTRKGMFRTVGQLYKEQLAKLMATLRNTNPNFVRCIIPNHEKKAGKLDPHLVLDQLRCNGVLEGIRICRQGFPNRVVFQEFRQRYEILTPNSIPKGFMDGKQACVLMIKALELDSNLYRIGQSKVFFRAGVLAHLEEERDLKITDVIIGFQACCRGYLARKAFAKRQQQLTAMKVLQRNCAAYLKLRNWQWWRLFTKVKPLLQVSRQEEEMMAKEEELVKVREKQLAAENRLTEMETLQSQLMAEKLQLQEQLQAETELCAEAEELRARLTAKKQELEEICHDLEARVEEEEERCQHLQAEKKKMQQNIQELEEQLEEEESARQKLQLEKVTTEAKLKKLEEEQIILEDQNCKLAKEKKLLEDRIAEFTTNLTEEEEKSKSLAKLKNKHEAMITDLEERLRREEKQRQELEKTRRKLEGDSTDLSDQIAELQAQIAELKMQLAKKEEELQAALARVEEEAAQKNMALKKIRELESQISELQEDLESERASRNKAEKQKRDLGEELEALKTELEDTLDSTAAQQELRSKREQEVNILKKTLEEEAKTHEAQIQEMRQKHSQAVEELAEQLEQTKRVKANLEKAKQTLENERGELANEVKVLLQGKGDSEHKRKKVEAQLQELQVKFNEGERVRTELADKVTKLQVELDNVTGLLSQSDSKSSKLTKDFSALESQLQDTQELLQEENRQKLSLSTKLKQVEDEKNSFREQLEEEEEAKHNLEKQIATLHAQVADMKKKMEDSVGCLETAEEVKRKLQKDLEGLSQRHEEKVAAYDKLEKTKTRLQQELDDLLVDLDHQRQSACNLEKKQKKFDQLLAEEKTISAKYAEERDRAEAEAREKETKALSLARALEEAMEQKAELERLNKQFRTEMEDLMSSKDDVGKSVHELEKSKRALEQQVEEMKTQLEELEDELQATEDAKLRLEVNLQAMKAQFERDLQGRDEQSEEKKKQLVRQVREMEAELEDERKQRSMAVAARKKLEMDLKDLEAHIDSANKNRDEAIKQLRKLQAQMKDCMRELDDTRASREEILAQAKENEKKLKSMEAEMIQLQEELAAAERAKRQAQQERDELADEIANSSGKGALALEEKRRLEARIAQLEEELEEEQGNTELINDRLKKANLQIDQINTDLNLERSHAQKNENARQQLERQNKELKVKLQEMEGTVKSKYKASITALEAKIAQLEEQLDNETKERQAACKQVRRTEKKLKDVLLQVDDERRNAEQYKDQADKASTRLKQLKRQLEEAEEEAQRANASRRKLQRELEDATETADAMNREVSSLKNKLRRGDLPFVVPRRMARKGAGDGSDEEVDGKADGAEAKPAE

O=C1c2ccncc2N=C2N(c3ccc(OC(F)(F)F)cc3)CCC12O (stereo not shown) [Compound 238, 3a-Hydroxy-1-[4-(trifluoromethoxy)phenyl]-1H,2H,3H,3aH,4H-pyrrolo[2,3-b]1,7-naphthyridin-4-one]
IC50 [1]: 3.5 µM | Inhibition (%) Dicty ([1]; maximum inhibition, compounds in IC50 range 1-11 μM): 41% | % inhibition. complete Dicty [1]: 41% | inhibition at 5 µM [1]: 24% | inhibition at 50 µM [1]: 38% | IC50 [2]: 2.1 µM | % inhibition. complete NM2C [2]: 40% | inhibition at 5 µM [2]: 27% | inhibition at 50 µM [2]: 38% | IC50 [3]: 59 µM | % inhibition. complete cardiac [3]: 100% | inhibition at 5 µM [3]: 2% | inhibition at 50 µM [3]: 47% | % inhibition at 5 μM (or 10 μM if racemate) Skeletal [4]: 80% | % inhibition at 50 μM (or 100 μM if racemate) Skeletal [4]: 93% | IC50 [4]: 0.95 µM | % inhibition. complete Skeletal [4]: 96% | IC50 [5]: 6.3 µM | Maximum change in isometric force at rear leg (%) (M. quadriceps femoris): 40% | Maximum change of vital parameters (%) heart rate [6]: 3% | Maximum change of vital parameters (%) oxygen saturation [6]: −12% | Maximum change of vital parameters (%) respiratory frequency [6]: −18% | Maximum change of vital parameters (%) blood flow ([6]; neck arteries): −10% | % inhibition at 5 μM (or 10 μM if racemate) Smooth [7]: 13% | % inhibition at 50 μM (or 100 μM if racemate) Smooth [7]: 28% | % inhibition. complete Smooth [7]: 31%

Cc1cc2c(s1)N=C1N(c3ccccc3)CCC1(O)C2=O (stereo not shown) [Compound 198, 9-Hydroxy-5-methyl-12-phenyl-4-thia-2,12-diazatricyclo[7.3.0.0^3,7]dodeca-1,3(7),5-trien-8-one]
IC50 [1]: 5 µM | % inhibition. complete Dicty [1]: 100% | inhibition at 5 µM [1]: 51% | inhibition at 50 µM [1]: 96% | IC50 [8]: 15 µM | % inhibition. complete NM2A [8]: 100% | inhibition at 5 µM [8]: 26% | inhibition at 50 µM [8]: 79% | IC50 [9]: 15.1 µM | % inhibition. complete NM2B ([9]; maximum value of inhibition of ATPase activity): 100% | inhibition at 5 µM [9]: 24% | inhibition at 50 µM [9]: 80% | IC50 [2]: 6.8 µM | % inhibition. complete NM2C [2]: 100% | inhibition at 5 µM [2]: 51% | inhibition at 50 µM [2]: 84% | IC50 [3]: 4 µM | Inhibition (%) cardiac ([3]; maximum inhibition, compounds in IC50 range 3-6 μM): 100% | % inhibition. complete cardiac [3]: 100% | inhibition at 5 µM [3]: 64% | inhibition at 50 µM [3]: 89% | % inhibition at 5 μM (or 10 μM if racemate) Skeletal [4]: 90% | % inhibition at 50 μM (or 100 μM if racemate) Skeletal [4]: 99% | IC50 [4]: 1 µM | % inhibition. complete Skeletal [4]: 100% | IC50 [5]: 7.6 µM | % inhibition at 5 μM (or 10 μM if racemate) Smooth [7]: 44% | % inhibition at 50 μM (or 100 μM if racemate) Smooth [7]: 88% | % inhibition. complete Smooth [7]: 100%

O=C1c2cccnc2N=C2N(c3ccccc3)CCC12O (stereo not shown) [Compound 189, 3a-Hydroxy-1-phenyl-1H,2H,3H,3aH,4H-pyrrolo[2,3-b]1,8-naphthyridin-4-one]
IC50 [1]: > 100 µM | inhibition at 5 µM [1]: 0% | inhibition at 50 µM [1]: 0% | IC50 [8]: 6 µM | Inhibition (%) NM2A ([8]; maximum inhibition, compounds in IC50 range 5-10 μM): 8% | % inhibition. complete NM2A [8]: 8% | inhibition at 5 µM [8]: 4% | inhibition at 50 µM [8]: 7% | IC50 [9]: > 100 µM | inhibition at 5 µM [9]: 0% | inhibition at 50 µM [9]: -5% | IC50 [2]: 1 µM | inhibition at 5 µM [2]: 11% | inhibition at 50 µM [2]: 13% | IC50 [3]: 26 µM | % inhibition. complete cardiac [3]: 72% | inhibition at 5 µM [3]: 11% | inhibition at 50 µM [3]: 47% | % inhibition at 5 μM (or 10 μM if racemate) Skeletal [4]: 37% | % inhibition at 50 μM (or 100 μM if racemate) Skeletal [4]: 80% | IC50 [4]: 7 µM | % inhibition. complete Skeletal [4]: 92% | IC50 [5]: 1 µM | % inhibition at 5 μM (or 10 μM if racemate) Smooth [7]: 8% | % inhibition at 50 μM (or 100 μM if racemate) Smooth [7]: 7% | Inhibition (%) smooth ([7]; maximum inhibition, compounds in IC50 range 1-5 μM): 8% | % inhibition. complete Smooth [7]: 8%

— patent US12421243B2, “Pharmaceutically effective compounds inhibiting selectively the myosin 2 isoforms” (PRINTNET KERESKEDELMI ÉS SZOLGÁLTATÓ KFT., priority 2018, dated 2025)
